From US11149047B2, “Aryl imidazoles for treatment of cancer” (Aptose Biosciences Inc., priority 2017, dated 2021)
Entries after “also recorded” stand apart in the source; their conditions may differ.

Legend:
[1] = tested on: gene expression in MV4-11 cells; test: RNA sequencing differential expression analysis; assay type: cell-based
Procedure: Treated MV4-11 cells were subjected to total RNA extraction (as for qRT-PCR analysis) and sequenced at the UCSD genomics core facility. RNA was processed using Illumina TruSeq and single end sequenced for 50-bp reads on the Illumina HiSeq4000. Data were analyzed by the McWeeny lab at Oregon Health and Science University (Portland, Oreg.). FASTQ files were assessed for read base distribution and sequence representation using FASTQC http://www.bioinformatics.babraham.ac.uk/projects/fastqc/. Reads were aligned to HG37 using SubRead v1.5.0-pl keeping uniquely mapped reads. Differential expression genes with less than 50 reads (across all 4 samples) were discarded. Raw data and processed files are available on GEO (https://www.ncbi.nlm.nih.gov/geo/query/acc.cgi?acc=GSE111949) accession number GSE111949.
To gain further insight into the pathways exploited by COMPOUND I to cause cell-cycle arrest and apoptosis, differential expression analysis was performed at both the mRNA and protein levels. MV4-11 cells were treated with either vehicle or 500 nmol/L COMPOUND I for 6 hours, and then gene expression was analyzed by RNA-seq. […] The RNA-seq analysis detected a 2-fold increase in KLF4 and a 4.5-fold increase in CDKN1A expression, which is validated by the qRT-PCR data with MV4-11 cells. The differentially regulated genes were analyzed for enriched pathways or GO (Gene Ontology) terms (FIG. 18A) utilizing the Broad Molecular Signatures database (http://software.broadinstitute.org/gsea/msigdb/index.jsp). As expected, apoptotic and cell-cycle pathways were enriched in the differentially expressed gene set. Unexpectedly, gene expression profiles after COMPOUND I treatment were also enriched in the DNA damage response (DDR) and endoplasmic reticulum (ER) stress/unfolded protein response pathways. […] Gene expression changes detected in MV4-11 cells raised the possibility that COMPOUND I could cause apoptosis by inducing DNA damage and activating cellular stress pathways, and/or by inhibition of expression of the MYC oncogene.

[2] = tested on: AML cells (MV4-11, KG-1, EOL-1); test: Flow cytometry cell-cycle analysis, time course; assay type: cell-based; conditions: IC50 concentration
Procedure: Cells were treated as described above. To determine apoptosis, cells were stained with FITC-Annexin V and propidium iodide (PI; BD Pharmingen, catalog #556570) and then analyzed on BD Accuri C6 flow cytometer. To measure DNA synthesis and phases of cell cycle, treated cells were stained with 5-ethynyl-2′-deoxyuridine (Edu) Alexa Fluor 488 (Thermo Fisher Scientific, catalog #C10425) and PI (PI/RNase A staining solution, BD Biosciences, catalog #550825). The dead cells were excluded from analysis by using Live/Dead Fixable Far Red Dead Cell Stain Kit (Thermo Fisher Scientific, catalog #L34973). Staining was performed as per the manufacturers' instructions.
There was no perturbation of cell-cycle phase distribution in cells treated with vehicle alone. An increase in the fraction of cells in G0-G1 was detected as early as 2 hours, and this fraction continued to increase in a time-dependent manner throughout the 24-hour period of drug exposure (FIGS. 9D-F).

[3] = tested on: Raji cells; test: Cellular pharmacology: intracellular accumulation and efflux by LC-MS/MS; assay type: in vitro ADME, human
Procedure: Cells exposed to COMPOUND I or Fe(COMPOUND I)3 were homogenized in acetonitrile containing 5 ng of a deuterated COMPOUND I standard. Samples were analyzed at the UCSD Molecular Mass Spectrometry Facility employing an Agilent 1260 liquid chromatograph (LC) system coupled with a Thermo LCQdeca mass spectrometer using positive ion mode electrospray ionization (ESI) as the ion source. The ESI ion source voltage was set at 5 kV, with sheath gas flow rate of 80 units, auxiliary gas flow rate of 20 units, and capillary temperature of 250° C., respectively. A Phenomenex Kinetex Biphenyl column (ID 2.1 mm×length 50 mm, particle size 2.6 μm) was utilized for LC separation using water with 0.1% formic acid as the mobile phase A and acetonitrile with 0.1% formic acid as the mobile phase B. The LC flow rate was set at 0.30 mL/min. The LC gradient increased from 5% mobile phase B to 95% mobile phase B in 10 minutes, held at 95% B for 2 minutes, returned to 5% B in 1 minute, and then held at 5% B for 6 minutes. […] Selected reaction monitoring (SRM) mode was used to acquire the m/z 353 and m/z 359 fragmental peaks. The SRM peak area ratio (COMPOUND I/COMPOUND I-d6) related to the amount of spiked COMPOUND I-d6 was used for the quantification of COMPOUND I and Fe(COMPOUND I)3 in the samples. The same column, gradient and flow rate were used for detection of Fe(COMPOUND I)3 which was detected using an Agilent 1100 HPLC and Orbitrap XL (Thermo) mass spectrometer employing a Thermo IonMax ESI interface. The Fe(COMPOUND I)3 eluted around 11.5 minutes with these conditions. A 10:1 flow split was used for the eluent flow rate of 0.3 mL/min, so that approximately 0.030 mL/min was introduced into the ESI after the split. […]
For this reason, Raji Burkitt's lymphoma cells were selected for study of the cellular pharmacology of COMPOUND I. The intracellular accumulation of COMPOUND I in the Raji cells was quantified by liquid chromatography tandem mass spectroscopy (LC-MS/MS). […]

[4] = patients with solid tumors, up to maximum tolerated dose; cited from earlier work

Structure (SMILES): Cc1[nH]c2ccc(F)cc2c1-c1nc2c3cccnc3c3ncccc3c2[nH]1 [COMPOUND I, 2-(5-fluoro-2-methyl-1H-indol-3-yl)-1H-imidazo[4,5-f][1,10]phenanthroline]
- genes differentially regulated (>2-fold change and P<0.05) ([1]; 500 nmol/L, 6 hours): 1,643 genes
- genes downregulated ([1]; 500 nmol/L, 6 hours): 1,227 genes
- genes upregulated ([1]; 500 nmol/L, 6 hours): 416 genes
- increase in BBC3 ([1]; 500 nmol/L, 6 hours): 3.95 fold
- increase in CDKN1A expression ([1]; 500 nmol/L, 6 hours): 4.5 fold
- increase in KLF4 expression ([1]; 500 nmol/L, 6 hours): 2 fold
- increase in PMAIP1 ([1]; 500 nmol/L, 6 hours): 1.38 fold
- KIT expression ([1]; 6-hour treatment): decreased
- MYC expression ([1]; 6 hours): downregulated
- earliest time an increase in the fraction of cells in G0-G1 was detected [2]: 2 h
- time at which cellular content approaches steady-state ([3]; Raji cells, FIG. 6A): ~6 h
- Rate of efflux over first 2 hours ([3]; Raji cells, mean ± SEM, n = 6): −0.19 ± 0.025 log fmole/10^7 cells/h
- intracellular Zn chelate ([3]; cells exposed to COMPOUND I): a Zn chelate was not detectable
- myelosuppression [4]: did not produce myelosuppression; also recorded: does not produce myelosuppression
